Measurements as given in patent US20140357655A1, “SPIROINDOLINE DERIVATIVES AS GONADOTROPIN- RELEASING HORMONE RECEPTOR ANTAGONISTS” (Bayer Intellectual Property GmbH, priority 2012, published 2014).

Target: T1, human GnRH receptor (Homo sapiens, UniProt P30968)
T1 sequence (P30968 1-328): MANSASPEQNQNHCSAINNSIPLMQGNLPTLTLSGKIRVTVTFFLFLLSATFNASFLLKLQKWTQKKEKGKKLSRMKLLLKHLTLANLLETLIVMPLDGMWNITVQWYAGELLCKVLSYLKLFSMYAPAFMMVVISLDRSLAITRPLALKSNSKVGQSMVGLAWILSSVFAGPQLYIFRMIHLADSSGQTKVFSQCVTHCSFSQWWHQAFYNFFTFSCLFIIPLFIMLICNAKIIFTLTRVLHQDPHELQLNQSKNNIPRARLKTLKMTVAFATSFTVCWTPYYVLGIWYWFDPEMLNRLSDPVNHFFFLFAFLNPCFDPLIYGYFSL
Assay: IP-One HTRF assay with buserelin (at EC80) stimulation
Type: cell-based
Details: CHO cells stably expressing human GnRH receptor, read-out: Potency in IP-One HTRF assay, given as IC50
Text: 2.3. IP-One HTRF® Assay By using homogenous time-resolved fluorescence resonance energy transfer (HTRF), the generation of one component of the GnRH—R signalling cascade can be measured. After stimulation of CHO cells stably expressing human GnRH receptor (established by Prof. Thomas Gudermann, currently University of Marburg, Germany; supplied as frozen cell aliquots by Cell Culture Services, Hamburg, Germany) with the EC80 of the GnRH agonist buserelin, Gq protein-coupled receptor signalling cascade is activated resulting in PLC-dependent cleavage of PIP2 to Inositol-1,4,5-triphosphate (IP3) and Diacylglycerol. The second messenger IP3 is degraded intracellularly to myo-inositol. Inhibition of the final degradation step from Inositol-1-phosphate (IP1) to myo-inositol by addition of lithium chloride leads to accumulation of IP1 in the cells. In cell lysates, IP1 can be detected via an antibody-based HTRF detection technology, where IP1 can displace the FRET acceptor IP1-d2 from binding by Terbium-labelled anti-IP1 antibody as donor resulting in a signal decrease. Compounds were tested for their capability of inhibiting GnRH—R activation by buserelin. For all IP-One HTRF® assays reagents of Cisbio Bioassays (IP-One Tb Jumbo kit, #62IPAPEJ; Cisbio Bioassays, Bagnols sur Cèze Cedex, France) were used.
For the assay, frozen cell aliquots were thawed and a cell suspension (3.33×10^6 cells/mL) containing IP1-d2 (dilution 1:40) was prepared and incubated at 37° C. After 1 h 3 μl of the cell suspension were added to 50 nl of a 100-fold concentrated solution of the test compound in DMSO pre-dispensed in a well of a white low-volume 384-well microtiter plate (Greiner Bio-One, Frickenhausen, Germany). […] Plates were incubated for 1 h at 37° C. and 5% carbon dioxide before the cells were lysed by adding 3 μl Terbium-labelled anti-IP1 antibody (1:40) diluted in Conjugate & Lysis buffer as supplied with the kit. After an incubation for 1 h at 22° C. to enable complete cell lysis and antibody binding to free IP1 or IP1-d2, plates were measured in an HTRF reader, e.g. a RUBYstar, PHERAstar (both BMG Labtechnologies, Offenburg, Germany) or a Viewlux (PerkinElmer LAS, Rodgau-Jügesheim, Germany).
From the fluorescence emissions at 665 nm (FRET) and at 620 nm (background signal of Terbium-antibody), the ratio (emission at 665 nm divided by emission at 620 nm) was calculated and the data were normalized (reaction without test compound=0% inhibition; all other assay components except agonist=100% inhibition). On the same microtiter plate, compounds were tested at 10 different concentrations in the range of 20 μM to 1 nM (20 μM, 6.7 μM, 2.2 μM, 0.74 μM, 0.25 μM, 82 nM, 27 nM, 9.2 nM, 3.1 nM and 1 nM; dilution series prepared before the assay at the level of the 100-fold conc. stock solutions by serial 1:3 dilutions in 100% DMSO) in duplicate values for each concentration. By using an in-house software, the IC50 values were calculated by a 4 parameter fit.

| Compound | IC50 |
| --- | --- |
| COc1cccc(S(=O)(=O)N2c3ccc(C(=O)NCc4ccc(F)cc4Cl)cc3C3(CCS(=O)(=O)CC3)C2C2CC2)c1 (single isomer, unassigned) [Example 46.1, N-(2-chloro-4-fluorobenzyl)-2-cyclopropyl-1-[(3-methoxyphenyl)sulfonyl]-1,2,2′,3′,5′,6′-hexahydrospiro[indole-3,4′-thiopyran]-5-carboxamide 1′,1′-dioxide] | 50 nM |
| CC1N(S(=O)(=O)c2ccc(F)cc2)c2ccc(C(=O)NCc3ncccc3Cl)cc2C12CCOCC2 (single isomer, unassigned) [Example 1.1, N-[(3-Chloropyridin-2-yl)methyl]-1-[(4-fluorophenyl)sulfonyl]-2-methyl-1,2,2′,3′,5′,6′-hexahydrospiro[indole-3,4′-pyran]-5-carboxamide] | 146 nM |
| N#Cc1ccc(S(=O)(=O)N2c3ccc(C(=O)NCc4ccccc4C(F)(F)F)cc3C3(CCS(=O)(=O)CC3)C2C2CC2)cc1 (single isomer, unassigned) [Example 72.2, 1-[(4-cyanophenyl)sulfonyl]-2-cyclopropyl-N-[2-(trifluoromethyl)benzyl]-1,2,2′,3′,5′,6′-hexahydrospiro[indole-3,4′-thiopyran]-5-carboxamide 1′,1′-dioxide] | 403 nM |
| O=C(O)c1cccc(NC(=O)c2ccc3c(c2)C2(CCS(=O)(=O)CC2)C(C2CC2)N3S(=O)(=O)c2cccc(OC(F)(F)F)c2)c1 (centres unmarked) [Example 83, 3-{[(2-cyclopropyl-1′,1′-dioxido-1-{[3-(trifluoromethoxy)phenyl]sulfonyl}-1,2,2′,3′,5′,6′-hexahydrospiro[indole-3,4′-thiopyran]-5-yl)carbonyl]amino}benzoic acid] | 140 nM |
| COc1cccc(S(=O)(=O)N2c3ccc(C(=O)Nc4cccc(S(=O)(=O)N=C(N(C)C)N(C)C)c4)cc3C3(CCS(=O)(=O)CC3)C2C2CC2)c1 (single isomer, unassigned) [Example 62.1, N-(3-{[bis(dimethylamino)methylidene]sulfamoyl}phenyl)-2-cyclopropyl-1-[(3-methoxyphenyl)sulfonyl]-1,2,2′,3′,5′,6′-hexahydrospiro[indole-3,4′-thiopyran]-5-carboxamide 1′,1′-dioxide] | 6430 nM |
| CS(=O)(=O)c1cccc(NC(=O)c2ccc3c(c2)C2(CCS(=O)(=O)CC2)C(C2CC2)N3S(=O)(=O)c2ccc(F)cc2)c1 (single isomer, unassigned) [Example 23.2, 2-cyclopropyl-1-[(4-fluorophenyl)sulfonyl]-N-(3-mesylphenyl)-1,2,2′,3′,5′,6′-hexahydrospiro[indole-3,4′-thiopyran]-5-carboxamide 1′,1′-dioxide] | 153 nM |
| Cc1cccnc1CNC(=O)c1ccc2c(c1)C1(CCS(=O)(=O)CC1)C(C1CC1)N2S(=O)(=O)c1ccc(F)cc1 (single isomer, unassigned) [Example 31.1, 2-cyclopropyl-1-[(4-fluorophenyl)sulfonyl]-N-[(3-methylpyridin-2-yl)methyl]-1,2,2′,3′,5′,6′-hexahydrospiro[indole-3,4′-thiopyran]-5-carboxamide 1′,1′-dioxide] | 266 nM |
| O=C(NC1(c2ccccc2Cl)CC1)c1ccc2c(c1)C1(CCS(=O)(=O)CC1)C(C1CC1)N2S(=O)(=O)c1ccc(F)cc1 (centres unmarked) [Example 21, N-[1-(2-chlorophenyl)cyclopropyl]-2-cyclopropyl-1-[(4-fluorophenyl)sulfonyl]-1,2,2′,3′,5′,6′-hexahydrospiro[indole-3,4′-thiopyran]-5-carboxamide 1′,1′-dioxide] | 3040 nM |
| N#Cc1ccc(S(=O)(=O)N2c3ccc(C(=O)NCc4ncccc4Cl)cc3C3(CCS(=O)(=O)CC3)C2C2CC2)cc1 (single isomer, unassigned) [Example 70.2, N-[(3-chloropyridin-2-yl)methyl]-1-[(4-cyanophenyl)sulfonyl]-2-cyclopropyl-1,2,2′,3′,5′,6′-hexahydrospiro[indole-3,4′-thiopyran]-5-carboxamide 1′,1′-dioxide] | 202 nM |
| CN(C)S(=O)(=O)c1cccc(NC(=O)c2ccc3c(c2)C2(CCS(=O)(=O)CC2)C(C2CC2)N3S(=O)(=O)c2ccc(F)cc2)c1 (centres unmarked) [Example 37, 2-cyclopropyl-N-[3-(N,N-dimethylsulfamoyl)phenyl]-1-[(4-fluorophenyl)sulfonyl]-1,2,2′,3′,5′,6′-hexahydrospiro[indole-3,4′-thiopyran]-5-carboxamide 1′,1′-dioxide] | 78 nM |
| O=C(NCC1CCCC1)c1ccc2c(c1)C1(CCS(=O)(=O)CC1)C(C1CC1)N2S(=O)(=O)c1ccc(F)cc1 (single isomer, unassigned) [Example 38.2, N-(cyclopentylmethyl)-2-cyclopropyl-1-[(4-fluorophenyl)sulfonyl]-1,2,2′,3′,5′,6′-hexahydrospiro[indole-3,4′-thiopyran]-5-carboxamide 1′,1′-dioxide] | 6860 nM |
| O=C(NCc1ccc(F)cc1Cl)c1ccc2c(c1)C1(CCS(=O)(=O)CC1)C(C1CC1)N2S(=O)(=O)c1ccc(F)cc1 (single isomer, unassigned) [Example 16.2, N-(2-chloro-4-fluorobenzyl)-2-cyclopropyl-1-[(4-fluorophenyl)sulfonyl]-1,2,2′,3′,5′,6′-hexahydrospiro[indole-3,4′-thiopyran]-5-carboxamide 1′,1′-dioxide] | 6840 nM |
| O=C(NCc1ncccc1F)c1ccc2c(c1)C1(CCS(=O)(=O)CC1)C(C1CC1)N2S(=O)(=O)c1ccc(F)cc1 (centres unmarked) [Example 52, 2-cyclopropyl-1-[(4-fluorophenyl)sulfonyl]-N-[(3-fluoropyridin-2-yl)methyl]-1,2,2′,3′,5′,6′-hexahydrospiro[indole-3,4′-thiopyran]-5-carboxamide 1′,1′-dioxide] | 752 nM |
| O=C(NC1CCOc2ccccc21)c1ccc2c(c1)C1(CCS(=O)(=O)CC1)C(C1CC1)N2S(=O)(=O)c1ccc(F)cc1 (single isomer, unassigned) [Example 33.3, 2-cyclopropyl-N-(3,4-dihydro-2H-chromen-4-yl)-1-[(4-fluorophenyl)sulfonyl]-1,2,2′,3′,5′,6′-hexahydrospiro[indole-3,4′-thiopyran]-5-carboxamide 1′,1′-dioxide] | > 20000 nM |
| O=C(NCc1ccccc1Cl)c1ccc2c(c1)C1(CCSCC1)C(C1CC1)N2S(=O)(=O)c1ccc(F)cc1 (racemic) [Example 12, N-(2-Chlorobenzyl)-2-cyclopropyl-1-[(4-fluorophenyl)sulfonyl]-1,2,2′,3′,5′,6′-hexahydrospiro[indole-3,4′-thiopyran]-5-carboxamide] | 186 nM |
| COc1cccc(S(=O)(=O)N2c3ccc(C(=O)NCc4ncccc4C)cc3C3(CCS(=O)(=O)CC3)C2C2CC2)c1 (single isomer, unassigned) [Example 45.1, 2-cyclopropyl-1-[(3-methoxyphenyl)sulfonyl]-N-[(3-methylpyridin-2-yl)methyl]-1,2,2′,3′,5′,6′-hexahydrospiro[indole-3,4′-thiopyran]-5-carboxamide 1′,1′-dioxide] | 253 nM |
| CC1N(S(=O)(=O)c2ccc(F)cc2)c2ccc(C(=O)NCc3ncccc3Cl)cc2C12CCOCC2 (single isomer, unassigned) [Example 1.2, N-[(3-Chloropyridin-2-yl)methyl]-1-[(4-fluorophenyl)sulfonyl]-2-methyl-1,2,2′,3′,5′,6′-hexahydrospiro[indole-3,4′-pyran]-5-carboxamide] | 19500 nM |
